According to patent US20120245184A1 (Aderans Research Institute, Inc., priority 2006, published 2012):
Counter-ions that a name gives are not always drawn.

How the values were obtained:
[1] = tested on: sonic hedgehog pathway; experiment: Human hedgehog reporter assay HEPM-GliLuc (HGL); type: cell-based; conditions: HepM human embryonic palatal mesenchymal cells, gli-luciferase reporter; read-out: HEPM Avg. EC50
Outline: (§1)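 Stable gli-luciferase reporter lines (mouse TM3; human Daoy and HEPM) switched to 0.5% FBS medium, given compounds at 1-5 μM with or without octyl-modified hedgehog protein (1-5 ng/ml) for 24 hrs. Luminescence read; eleven-point 1:3 dose curves, activation expressed as percentage of plate controls (AMAX).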

[2] = tested on: sonic hedgehog pathway; experiment: Hedgehog reporter assay (gli-luciferase) in S12 cells; type: cell-based; conditions: S12 mouse embryonic mesenchymal cells, read-out: S12 Avg. EC50
From the text: Mouse (TM3: mouse Leydig cells; S12: mouse embryonic mesenchymal cells) and human (Daoy: human medulloblastoma cell; HepM: human embryonic palatal mesenchymal cell) cell lines are used to screen small molecules for their ability to modulate the activity of the sonic hedgehog pathway (Table 1, Table 2, and Table 3). Stable hedgehog pathway reporter cell lines are established by specific antibiotic selection following transfection of a reporter plasmid containing a luciferase gene located directly downstream from the gli promoter. Consequently, any observable changes in cellular luciferase activity may be attributed to changes in sonic hedgehog pathway activity in mouse and human cells, respectively, since gli is the major by-product of this pathway. To calculate activity, we generate an eleven point dose curve for each compound using 1:3 dilutions in 96 well assay plates. Each plate tested also contains low and high control to establish maximal pathway activation so to establish/compare a percentage activation of each tested compound (AMAX) on respective plates. Also we calculate EC50 values, or a concentration where the pathway will be exactly 50% activated, for each tested compound to determine potency. In these cell lines, compounds that register >20% AMAX values are considered active.
Stable hedgehog pathway reporter cell lines are established following specific antibiotic selection following transfection of a reporter plasmid
In short, typically cells are plated in MicroTiter-plates at 10,000-20,000 cells per well, in growth media (containing 10%-20% FBS). After 48-72 hrs (HGL and DGL respectively) the media in the assay plates is switched to low-serum containing media (0.5% FBS). At that time compounds are added (at 1-5 μM) to the assay plates, in the presence or absence of hedgehog protein (octyl-modified version; 1-5 ng/ml). After another 24 hrs of incubation, the media from the assay plates is discarded and replaced with luciferase assay-mix. Subsequently, plates are incubated at RT for ˜15-30 mins and then read in a luminometer. [note: addition of the Hedgehog protein, although not critical, will sensitize the assay allowing the identification of weak actives].

[3] = tested on: sonic hedgehog pathway; experiment: Hedgehog reporter assay (gli-luciferase) in TM3 cells; type: cell-based, mouse; conditions: TM3 mouse Leydig cells, gli-luciferase reporter; read-out: TM3 Avg. EC50
Outline: as §1

[4] = tested on: sonic hedgehog pathway; experiment: Human hedgehog reporter assay Daoy-GliLuc (DGL); type: cell-based; conditions: Daoy human medulloblastoma cells, gli-luciferase reporter; read-out: Daoy Avg. EC50
Outline: as §1

Measured: EC50

CNC1CCC(N(Cc2cc(-c3cccnc3)ccc2OC)C(=O)c2sc3cccc(F)c3c2Cl)CC1 (stereo not drawn) [360 (R16), 3-Chloro-4-fluoro-benzo[b]thiophene-2-carboxylic acid (2-methoxy-5-pyridin-3-yl-benzyl)-(4-methylamino-cyclohexyl)-amide dihydrochloride]
< 50 nM: all assays above

CN[C@H]1CC[C@H](N(Cc2cc(-c3ccc(N)nc3)ccc2OC)C(=O)c2sc3cccc(F)c3c2Cl)CC1 [362 (R13), 3-Chloro-4-fluoro-benzo[b]thiophene-2-carboxylic acid[5-(6-amino-pyridin-3-yl)-2-methoxy-benzyl]-(4-methylamino-cyclohexyl)-amide dihydrochloride]
< 50 nM: all assays above

CNC1CCC(N(Cc2cc(-c3ccc(N)nc3)ccc2OC)C(=O)c2sc3ccccc3c2Cl)CC1 (stereo not drawn) [Compound 319, 3-Chloro-benzo[b]thiophene-2-carboxylic acid [5-(6-aminopyridin-3-yl)-2-methoxy-benzyl]-(4-methylamino-cyclohexyl)-amide dihydrochloride]
< 50 nM: [1] | [2] | [3]

CNC1CCC(N(Cc2cc(-c3ccc(CO)cc3)ccc2OC)C(=O)c2sc3ccccc3c2Cl)CC1 (stereo not drawn) [Compound 329, 3-Chloro-benzo[b]thiophene-2-carboxylic acid (4′-hydroxymethyl-4-methoxy-biphenyl-3-ylmethyl)-(4-methylamino-cyclohexyl)-amide hydrochloride]
< 50 nM: [1] | [2] | [3]

CNC1CCC(N(Cc2cc(-c3ccc(C(C)=O)cc3)ccc2OC)C(=O)c2sc3c(F)ccc(F)c3c2Cl)CC1 (stereo not drawn) [Compound 332, 3-Chloro-4,7-difluoro-benzo[b]thiophene-2-carboxylic acid (4′-acetyl-4-methoxy-biphenyl-3-ylmethyl)-(4-methylamino-cyclohexyl)-amide hydrochloride]
< 50 nM: all assays above

CNC1CCC(N(Cc2cc(-c3ccc(C(=O)N(C)C)cc3)ccc2OC)C(=O)c2sc3c(F)ccc(F)c3c2Cl)CC1 (stereo not drawn) [Compound 333, 3-Chloro-4,7-difluoro-benzo[b]thiophene-2-carboxylic acid (4′-dimethylcarbamoyl-4-methoxy-biphenyl-3-ylmethyl)-(4-methylamino-cyclohexyl)-amide hydrochloride]
< 50 nM: all assays above

CC[C@H]1CC[C@@H](N(Cc2cc(-c3ccc(C)cc3)ccc2OC)C(=O)C2=C(C)c3c(C)ccc(C)c3C2)CC1 [Compound 334, 3-Chloro-4,7-difluoro-benzo[b]thiophene-2-carboxylic acid[2-methoxy-5-(6-methyl-pyridin-3-yl)-benzyl]-(4-methylamino-cyclohexyl)-amide bis(trifluoroacetate)]
< 50 nM: all assays above

CN[C@H]1CC[C@@H](N(Cc2cc(-c3ccc(S(C)(=O)=O)cc3)ccc2OC)C(=O)C2=C(Cl)c3c(C)ccc(C)c3C2)CC1 [Compound 335, 3-Chloro-4,7-difluoro-benzo[b]thiophene-2-carboxylic acid(4′-methanesulfonyl-4-methoxy-biphenyl-3-ylmethyl)-(4-methylamino-cyclohexyl)-amide hydrochloride]
< 50 nM: all assays above

CN[C@H]1CC[C@@H](N(Cc2cc(-c3ccc(N(C)C(C)=O)cc3)ccc2OC)C(=O)c2sc3c(C)ccc(C)c3c2C)CC1 [Compound 336, 3-Chloro-4,7-difluoro-benzo[b]thiophene-2-carboxylic acid[4′-(acetyl-methyl-amino)-4-methoxy-biphenyl-3-ylmethyl]-(4-methylamino-cyclohexyl)-amide hydrochloride]
< 50 nM: all assays above

CN[C@H]1CC[C@@H](N(Cc2cc(-c3ccc(CO)cc3)ccc2OC)C(=O)c2sc3c(C)ccc(C)c3c2Cl)CC1 [Compound 338, 3-Chloro-4,7-difluoro-benzo[b]thiophene-2-carboxylic acid(4′-hydroxymethyl-4-methoxy-biphenyl-3-ylmethyl)-(4-methylamino-cyclohexyl)-amide trifluoroacetate]
< 50 nM: all assays above

CNC1CCC(N(Cc2cc(-c3ccnc(C(N)=O)c3)ccc2OC)C(=O)c2sc3c(F)ccc(F)c3c2Cl)CC1 (stereo not drawn) [Compound 354 (R17), 4-(3-{[(3-Chloro-4,7-difluoro-benzo[b]thiophene-2-carbonyl)-(4-methylamino-cyclohexyl)-amino]-methyl}-4-methoxy-phenyl)-pyridine-2-carboxylic acid amide dihydrochloride]
< 50 nM: all assays above

CN[C@H]1CC[C@@H](N(Cc2cc(-c3ccnc(C)c3)ccc2OC)C(=O)C2=C(Cl)c3c(C)ccc(F)c3C2)CC1 [Compound 355]
< 50 nM: [1] | [2] | [3]

CNc1cc(-c2ccc(OC)c(CN(C(=O)c3sc4c(F)ccc(F)c4c3Cl)C3CCC(NC)CC3)c2)ccn1 (stereo not drawn) [Compound 357, 3-Chloro-4,7-difluoro-benzo[b]thiophene-2-carboxylic acid[2-methoxy-5-(2-methylamino-pyridin-4-yl)-benzyl]-(4-methylamino-cyclohexyl)-amide bis(trifluoroacetate)]
< 50 nM: all assays above

CNC1CCC(N(Cc2cc(-c3ccccn3)ccc2OC)C(=O)c2sc3c(F)ccc(F)c3c2Cl)CC1 (stereo not drawn) [Compound 367, 3-Chloro-4,7-difluoro-benzo[b]thiophene-2-carboxylic acid (2-methoxy-5-pyridin-2-yl-benzyl)-(4-methylamino-cyclohexyl)-amide dihydrochloride]
< 50 nM: all assays above

CNC1CCC(N(Cc2cc(-c3ccnc(C(=O)OC)c3)ccc2OC)C(=O)c2sc3c(F)ccc(F)c3c2Cl)CC1 (stereo not drawn) [Compound R5, Methyl 4-(3-{[(3-chloro-4,7-difluoro-benzo[b]thiophene-2-carbonyl)-(4-methylamino-cyclohexyl)-amino]-methyl}-4-methoxy-phenyl)-pyridine-2-carboxylate]
< 50 nM: all assays above

CNC1CCC(N(Cc2cc(-c3ccc(NS(C)(=O)=O)nc3)ccc2OC)C(=O)c2sc3c(F)ccc(F)c3c2Cl)CC1 (stereo not drawn) [Compound R10, 3-Chloro-4,7-difluoro-benzo[b]thiophene-2-carboxylic acid[5-(6-methanesulfonylamino-pyridin-3-yl)-2-methoxy-benzyl]-(4-methylamino-cyclohexyl)-amide dihydrochloride]
< 50 nM: [1] | [2] | [3]
